Legend:
Arcobacter butzleri = experiment: MBC, macrodilution broth method; type: cell-based; conditions: microaerophilic, 37° C., 48 hours
Procedure: (§1) Experiments were conducted by microaerophilic incubation at 37° C. for 48 hours. An aliquot of each dilution was pour plated in agar and incubated in microaerophilic conditions at 37° C. for 48 hours. MBCs were determined as the lowest dilution with no growth.

Campylobacter jejuni = experiment: MBC, macrodilution broth method; type: cell-based; conditions: microaerophilic, 37° C., 48 hours
Procedure: as §1

Escherichia coli O157:H7 [1] = test system: Escherichia coli O157:H7
S. typhimurium [2] = experiment: Concentration and time study: reduction of viable S. typhimurium on chicken skin; design: species or system Salmonella typhimurium; conditions: CPC 4000 and 8000 ppm in 5% glycerin-PBS, contact times as low as 3 min
Procedure: CPC in the glycerin-PBS mixture. […] Salmonella storage was on TSA. Inoculum preparation was performed as follows.
Culture plates with the skin pieces were incubated (30 min., 35° C.), and then the incubating solution was removed by aspiration. The inoculated skins were treated with 5 ml of the test solution. […] A corner of the bag was aseptically cut and the entire contents were transferred to a sterile centrifuge tube, which was then spun for 10 min (12,000 rpm, 20° C.). The pellet was resuspended in 5 ml 0.1% (w/v) peptone/water.

Salmonella = experiment: Another spraying experiment on chicken carcasses; conditions: 90 second spraying of chicken carcasses with 5,000 ppm CPC
L. monocytogenes [3] = experiment: Reduction of viable Listeria monocytogenes attached to chicken skin; conditions: CPC 2000 ppm or higher
Source text: The steps of Example 2 were followed except that L. monocytogenes was used to inoculate the chicken skin and the media in the plastic bag used in the Stomacher 400 contained 0.1% peptone.

L. monocytogenes [4] = experiment: Inhibition of attachment of Listeria monocytogenes to chicken skin
Source text: The steps of Example 3 were followed except that L. monocytogenes was used to inoculate the chicken skin and the media in the plastic bag used in the Stomacher 400 contained 0.1% peptone.

C. jejuni = experiment: Spraying whole chicken carcasses with a commercial sprayer; design: species or system Campylobacter jejuni; conditions: for BACTERIA PRESENT, 5,000 ppm CPC: preexisting C. jejuni, MPN, spray 20 seconds at 60 psi
Procedure: (§2) These experiments tested the effect that spraying QACs on whole chicken carcasses using a commercial sprayer would have on the reduction of viable bacteria. The bacterial inoculating solutions were made as follows: E. coli (ATTC #25922) was grown in brain heart infusion broth (BHI) for 20-24 h and then diluted to a 1:1000 concentration by adding 0.5 ml of E. coli culture to 500 ml of physiological saline solution (PSS). S. typhimurium was grown in BHI for 20-24 h and then diluted to a 1:5000 concentration by adding 0.1 ml of S. typhimurium culture to 500 ml of physiological saline solution (PSS). […] Prechill chicken carcasses were obtained from a local poultry processing plant for each trial. The carcasses were placed on a shackle line and 1 ml of the bacterial inoculating solution was sprayed on the breast of the carcass, and 1 ml was sprayed on the back. The bacteria were allowed to attach for 30 min at room temperature. After attachment the carcasses were rinsed on the shackle line with tap water for 20 seconds. The carcasses were divided into groups of ten. […] In the S. typhimurium tests, there was also a group that was not sprayed after inoculation to evaluate the effect of the spray.
(§3) For all of the bacteria, one group of carcasses were treated with the Johnson™ washer for 20 seconds at 60 psi with 35 cups of tap water. After the rinse, the carcasses were allowed to set for 90 seconds, and then rinsed with 20 cups of tap water for 20 seconds at 80 psi. This rinse cycle was repeated either two or three times. The interval of each rinse was also 90 seconds. […] This rinse cycle was repeated either two or three times.
(§4) After treatment the carcasses were placed in plastic bags and 100 ml of 0.1% buffered peptone water (BPW) was added to each bag. The bags were mechanically shaken and the rinse collected for most probable number (MPN) technique. Petrifilm™ was also employed for evaluation of total aerobic plate counts (TPC). Preexisting (not inoculated) C. jejuni was enumerated by the MPN technique and E. coli by Petrifilm™.

E. coli = experiment: as above; design: species or system Escherichia coli; conditions: for BACTERIA PRESENT, 5,000 ppm CPC: Petrifilm, spray 20 seconds at 60 psi
Procedure: as §2, §3, §4

S. typhimurium [5] = experiment: as above; design: species or system Salmonella typhimurium
Procedure: as §2, §3, §4

[6] = Ames assay for mutagenicity; type: cell-based
Procedure: The present invention has an important application in the food processing industry, as well as for home and institutional food preparation. QACs are readily available and the cost of carrying out the method of the present invention is not expensive as compared to existing antimicrobial processes. […] A range of concentrations of QACs are effective in preventing broad spectrum microbial growth on food products. QACs are tested by the Ames assay for mutagenicity.

Escherichia coli O157:H7 [7] = test system: Escherichia coli O157:H7; remark: listed apart in the source
Escherichia coli O157:H7 [8] = test system: Escherichia coli O157:H7; remark: listed apart in the source

## CCCCCCCCCCCCCCCC[n+]1ccccc1 [CPC, cetylpyridinium chloride]
Arcobacter butzleri; CPC 0.50 μg/mL
  CPC Vs Arcobacter Butzleri, growth in MBC test: +
Arcobacter butzleri; CPC 0.98 μg/mL
  CPC Vs Arcobacter Butzleri, growth in MBC test: +
Arcobacter butzleri; CPC 1.96 μg/mL
  CPC Vs Arcobacter Butzleri, growth in MBC test: +
Arcobacter butzleri; CPC 3.91 μg/mL
  CPC Vs Arcobacter Butzleri, growth in MBC test: +
Arcobacter butzleri; CPC 7.81 μg/mL
  CPC Vs Arcobacter Butzleri, growth in MBC test: +
Arcobacter butzleri; CPC 15.63 μg/mL
  CPC Vs Arcobacter Butzleri, growth in MBC test: +
Arcobacter butzleri; CPC 31.25 μg/mL
  CPC Vs Arcobacter Butzleri, growth in MBC test: +
Arcobacter butzleri; CPC 62.5 μg/mL
  CPC Vs Arcobacter Butzleri, growth in MBC test: −
Arcobacter butzleri; CPC 125 μg/mL
  CPC Vs Arcobacter Butzleri, growth in MBC test: −
Arcobacter butzleri; CPC […]
  CPC Vs Arcobacter Butzleri, growth in MBC test: +
Campylobacter jejuni; CPC 0.50 μg/mL
  CPC Vs Campylobacter Jejuni, growth in MBC test: +
Campylobacter jejuni; CPC 0.98 μg/mL
  CPC Vs Campylobacter Jejuni, growth in MBC test: +
Campylobacter jejuni; CPC 1.96 μg/mL
  CPC Vs Campylobacter Jejuni, growth in MBC test: +
Campylobacter jejuni; CPC 3.91 μg/mL
  CPC Vs Campylobacter Jejuni, growth in MBC test: +
Campylobacter jejuni; CPC 7.81 μg/mL
  CPC Vs Campylobacter Jejuni, growth in MBC test: −
Campylobacter jejuni; CPC 15.63 μg/mL
  CPC Vs Campylobacter Jejuni, growth in MBC test: −
Campylobacter jejuni; CPC 31.25 μg/mL
  CPC Vs Campylobacter Jejuni, growth in MBC test: −
Campylobacter jejuni; CPC 62.5 μg/mL
  CPC Vs Campylobacter Jejuni, growth in MBC test: −
Campylobacter jejuni; CPC 125 μg/mL
  CPC Vs Campylobacter Jejuni, growth in MBC test: −
Campylobacter jejuni; CPC […]
  CPC Vs Campylobacter Jejuni, growth in MBC test: +
Escherichia coli O157:H7 [1]
  reduction in attached bacteria: 62-64%
S. typhimurium [2]
  decontamination (Salmonella reduction) on chicken skin: ~5 log10
Salmonella
  reduction of Salmonella: 3.3 log10
L. monocytogenes [3]
  reduction in L. monocytogenes: > 4 log10
L. monocytogenes [4]; 50 ppm CPC
  reduction of attached bacteria: 82%
L. monocytogenes [4]; 100 ppm CPC
  reduction of attached bacteria: 92%
L. monocytogenes [4]; 500 and 1000 ppm CPC
  reduction of attached bacteria: 100%
C. jejuni; Trial 1
  Reduction in Log10 (water control vs 5,000 ppm CPC): 2.613 Log10
  BACTERIA PRESENT, 5,000 ppm CPC: 0
C. jejuni; Trial 2
  Reduction in Log10 (water control vs 5,000 ppm CPC): 2.014 Log10
  BACTERIA PRESENT, 5,000 ppm CPC: 0.629
E. coli; Trial 1
  Reduction in Log10 (water control vs 5,000 ppm CPC): 1.588 Log10
  BACTERIA PRESENT, 5,000 ppm CPC: 0.386
E. coli; Trial 2
  Reduction in Log10 (water control vs 5,000 ppm CPC): 0.920 Log10
  BACTERIA PRESENT, 5,000 ppm CPC: 0.460
S. typhimurium [5]; trial 1 (Dec. 02, 1996)
  Reduction, No Spray vs. CPC Treatment: 1.047 Log10 CFUs
  Reduction, Spray vs. CPC Treatment: 0.744 Log10 CFUs
  S. typhimurium, 5,000 ppm CPC: 4.295 Log10 CFUs
S. typhimurium [5]; trial 2 (Dec. 09, 1996)
  Reduction, No Spray vs. CPC Treatment: 3.327 Log10 CFUs
  Reduction, Spray vs. CPC Treatment: 2.955 Log10 CFUs
  S. typhimurium, 5,000 ppm CPC: 1.977 Log10 CFUs
S. typhimurium [5]; trial 3 (Dec. 16, 1996)
  Reduction, No Spray vs. CPC Treatment: 2.395 Log10 CFUs
  Reduction, Spray vs. CPC Treatment: 2.548 Log10 CFUs
  S. typhimurium, 5,000 ppm CPC: 2.606 Log10 CFUs
S. typhimurium [5]; trial 4 (Jan. 27, 1997)
  Reduction, No Spray vs. CPC Treatment: 3.69 Log10 CFUs
  Reduction, Spray vs. CPC Treatment: 3.45 Log10 CFUs
  S. typhimurium, 5,000 ppm CPC: 1.03 Log10 CFUs
S. typhimurium [5]; trial 5 (Feb. 03, 1997)
  Reduction, No Spray vs. CPC Treatment: 2.76 Log10 CFUs
  Reduction, Spray vs. CPC Treatment: 2.79 Log10 CFUs
  S. typhimurium, 5,000 ppm CPC: 1.426 Log10 CFUs
S. typhimurium [5]; wash water of the S. typhimurium runs
  reduction of Salmonella by CPC in the wash water: 1 log
[6]
  mutagenicity by the Ames assay: nonmutagenic
Escherichia coli O157:H7 [7]
  number of attached bacteria reduced to: below 0.1%
Escherichia coli O157:H7 [8]
  reduction in the number of bacteria attached to the beef: 76%
